ChEMBL document CHEMBL1147144, “Novel styrylpyridines as probes for SPECT imaging of amyloid plaques” (J Med Chem, 2007)

Experiments:
[1] = target: Amyloid-beta precursor protein (Homo sapiens, UniProt P05067); assay: Displacement of […] from Abeta peptide plaques in Alzheimer's disease patient brain
Heart [2] = assay: Biodistribution in ICR mouse heart at 5 to 10 uCi, iv after 2 mins; type: ADME, organism-based; details: in vivo
Heart [3] = assay: Biodistribution in ICR mouse heart at 5 to 10 uCi, iv after 30 mins; type: ADME, organism-based; details: in vivo, 0.5 h
Heart [4] = assay: Biodistribution in ICR mouse heart at 5 to 10 uCi, iv after 1 hr; type: ADME, organism-based; details: in vivo
Kidney [5] = assay: Biodistribution in ICR mouse kidney at 5 to 10 uCi, iv after 2 hrs; type: ADME, organism-based; details: in vivo
Spleen [6] = assay: Biodistribution in ICR mouse spleen at 5 to 10 uCi, iv after 2 mins; type: ADME, organism-based; details: in vivo
Spleen [7] = assay: Biodistribution in ICR mouse spleen at 5 to 10 uCi, iv after 30 mins; type: ADME, organism-based; details: in vivo, 0.5 h
Heart [8] = assay: Biodistribution in ICR mouse heart at 5 to 10 uCi, iv after 2 hrs; type: ADME, organism-based; details: in vivo
Muscle tissue [9] = assay: Biodistribution in ICR mouse muscle at 5 to 10 uCi, iv after 2 mins; type: ADME, organism-based; details: in vivo
Muscle tissue [10] = assay: Biodistribution in ICR mouse muscle at 5 to 10 uCi, iv after 30 mins; type: ADME, organism-based; details: in vivo, 0.5 h
Muscle tissue [11] = assay: Biodistribution in ICR mouse muscle at 5 to 10 uCi, iv after 1 hr; type: ADME, organism-based; details: in vivo
Muscle tissue [12] = assay: Biodistribution in ICR mouse muscle at 5 to 10 uCi, iv after 2 hrs; type: ADME, organism-based; details: in vivo
Lung [13] = assay: Biodistribution in ICR mouse lung at 5 to 10 uCi, iv after 2 mins; type: ADME, organism-based; details: in vivo
Lung [14] = assay: Biodistribution in ICR mouse lung at 5 to 10 uCi, iv after 30 mins; type: ADME, organism-based; details: in vivo, 0.5 h
Lung [15] = assay: Biodistribution in ICR mouse lung at 5 to 10 uCi, iv after 1 hr; type: ADME, organism-based; details: in vivo
Lung [16] = assay: Biodistribution in ICR mouse lung at 5 to 10 uCi, iv after 2 hrs; type: ADME, organism-based; details: in vivo
Kidney [17] = assay: Biodistribution in ICR mouse kidney at 5 to 10 uCi, iv after 2 mins; type: ADME, organism-based; details: in vivo
Kidney [18] = assay: Biodistribution in ICR mouse kidney at 5 to 10 uCi, iv after 30 mins; type: ADME, organism-based; details: in vivo, 0.5 h
Kidney [19] = assay: Biodistribution in ICR mouse kidney at 5 to 10 uCi, iv after 1 hr; type: ADME, organism-based; details: in vivo
Spleen [20] = assay: Biodistribution in ICR mouse spleen at 5 to 10 uCi, iv after 1 hr; type: ADME, organism-based; details: in vivo
Spleen [21] = assay: Biodistribution in ICR mouse spleen at 5 to 10 uCi, iv after 2 hrs; type: ADME, organism-based; details: in vivo
Liver [22] = assay: Biodistribution in ICR mouse liver at 5 to 10 uCi, iv after 2 mins; type: ADME, organism-based; details: in vivo
Liver [23] = assay: Biodistribution in ICR mouse liver at 5 to 10 uCi, iv after 30 mins; type: ADME, organism-based; details: in vivo, 0.5 h
Liver [24] = assay: Biodistribution in ICR mouse liver at 5 to 10 uCi, iv after 1 hr; type: ADME, organism-based; details: in vivo
Liver [25] = assay: Biodistribution in ICR mouse liver at 5 to 10 uCi, iv after 2 hrs; type: ADME, organism-based; details: in vivo
Zone of skin [26] = assay: Biodistribution in ICR mouse skin at 5 to 10 uCi, iv after 2 mins; type: ADME, organism-based; details: in vivo
Zone of skin [27] = assay: Biodistribution in ICR mouse skin at 5 to 10 uCi, iv after 30 mins; type: ADME, organism-based; details: in vivo, 0.5 h
Zone of skin [28] = assay: Biodistribution in ICR mouse skin at 5 to 10 uCi, iv after 1 hr; type: ADME, organism-based; details: in vivo
Zone of skin [29] = assay: Biodistribution in ICR mouse skin at 5 to 10 uCi, iv after 2 hrs; type: ADME, organism-based; details: in vivo
Brain [30] = assay: Biodistribution in ICR mouse brain at 5 to 10 uCi, iv after 2 mins; type: ADME, organism-based; details: in vivo
Brain [31] = assay: Biodistribution in ICR mouse brain at 5 to 10 uCi, iv after 30 mins; type: ADME, organism-based; details: in vivo, 0.5 h
Brain [32] = assay: Biodistribution in ICR mouse brain at 5 to 10 uCi, iv after 1 hr; type: ADME, organism-based; details: in vivo
Brain [33] = assay: Biodistribution in ICR mouse brain at 5 to 10 uCi, iv after 2 hrs; type: ADME, organism-based; details: in vivo
Thyroid gland [34] = assay: Biodistribution in ICR mouse thyroid at 5 to 10 uCi, iv after 2 mins; type: ADME, organism-based; details: in vivo
Thyroid gland [35] = assay: Biodistribution in ICR mouse thyroid at 5 to 10 uCi, iv after 30 mins; type: ADME, organism-based; details: in vivo, 0.5 h
Thyroid gland [36] = assay: Biodistribution in ICR mouse thyroid at 5 to 10 uCi, iv after 1 hr; type: ADME, organism-based; details: in vivo
Thyroid gland [37] = assay: Biodistribution in ICR mouse thyroid at 5 to 10 uCi, iv after 2 hrs; type: ADME, organism-based; details: in vivo
Brain [38] = assay: Ratio of drug distribution in brain after 2 mins to 30 mins in ICR mouse at 5 to 10 uCi, iv; type: ADME, organism-based; details: in vivo
[39] = Partition coefficient, log P at pH 7.4; type: physicochemical; details: octanol/water
Blood [40] = assay: Biodistribution in ICR mouse blood at 5 to 10 uCi, iv after 2 mins; type: ADME, organism-based; details: in vivo
Blood [41] = assay: Biodistribution in ICR mouse blood at 5 to 10 uCi, iv after 30 mins; type: ADME, organism-based; details: in vivo, 0.5 h
Blood [42] = assay: Biodistribution in ICR mouse blood at 5 to 10 uCi, iv after 1 hr; type: ADME, organism-based; details: in vivo
Blood [43] = assay: Biodistribution in ICR mouse blood at 5 to 10 uCi, iv after 2 hrs; type: ADME, organism-based; details: in vivo

Sequence of Amyloid-beta precursor protein (P05067 whole entry): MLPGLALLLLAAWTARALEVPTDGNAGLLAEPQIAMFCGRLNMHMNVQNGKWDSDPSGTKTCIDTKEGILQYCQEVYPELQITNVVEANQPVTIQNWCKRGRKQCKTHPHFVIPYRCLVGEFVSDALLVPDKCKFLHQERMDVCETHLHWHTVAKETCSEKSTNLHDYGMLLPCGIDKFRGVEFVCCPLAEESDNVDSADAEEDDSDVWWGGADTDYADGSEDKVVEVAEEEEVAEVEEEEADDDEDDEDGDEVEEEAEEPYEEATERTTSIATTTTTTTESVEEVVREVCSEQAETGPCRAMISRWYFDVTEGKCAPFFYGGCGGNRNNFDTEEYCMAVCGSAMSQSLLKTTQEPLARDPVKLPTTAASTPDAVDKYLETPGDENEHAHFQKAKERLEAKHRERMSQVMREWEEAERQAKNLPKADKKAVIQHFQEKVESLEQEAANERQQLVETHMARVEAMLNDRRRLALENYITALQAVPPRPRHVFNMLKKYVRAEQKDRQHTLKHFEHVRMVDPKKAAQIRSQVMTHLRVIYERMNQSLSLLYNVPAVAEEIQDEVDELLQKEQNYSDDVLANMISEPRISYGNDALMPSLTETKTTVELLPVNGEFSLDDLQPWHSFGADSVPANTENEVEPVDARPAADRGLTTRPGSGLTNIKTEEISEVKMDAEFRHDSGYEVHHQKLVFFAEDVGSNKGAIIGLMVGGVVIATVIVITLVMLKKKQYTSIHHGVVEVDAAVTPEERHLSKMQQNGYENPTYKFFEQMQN

For `CNc1ccc(/C=C/c2cnc(OCCOCCOCCF)c(Br)c2)cc1`, the Ki [1] was 4.5 nM.
Work on `OCCOc1ncc(/C=C/c2ccc(O)cc2)cc1I` yielded a Ki [1] of 15.5 nM.
Work on `CN(C)c1ccc(/C=C/c2cnc(OCCO)c([125I])c2)cc1` yielded a Drug uptake (Heart [2]) of 10.2 % ID/g, a Drug uptake (Heart [3]) of 1.93 % ID/g and a Drug uptake (Heart [4]) of 1.12 % ID/g. It also gave a Drug uptake (Kidney [5]) of 1.48 % ID/g, a Drug uptake (Spleen [6]) of 4.4 % ID/g and a Drug uptake (Spleen [7]) of 1.94 % ID/g. For the same molecule, the Drug uptake (Heart [8]) was 0.62 % ID/g, the Drug uptake (Muscle tissue [9]) was 0.71 % ID/g and the Drug uptake (Muscle tissue [10]) was 1.05 % ID/g. It also gave a Drug uptake (Muscle tissue [11]) of 0.55 % ID/g, a Drug uptake (Muscle tissue [12]) of 0.22 % ID/g and a Drug uptake (Lung [13]) of 9.41 % ID/g. It also gave a Drug uptake (Lung [14]) of 3.02 % ID/g, a Drug uptake (Lung [15]) of 1.98 % ID/g and a Drug uptake (Lung [16]) of 1 % ID/g. It also gave a Drug uptake (Kidney [17]) of 14.3 % ID/g, a Drug uptake (Kidney [18]) of 4.19 % ID/g and a Drug uptake (Kidney [19]) of 2.49 % ID/g. It also gave a Drug uptake (Spleen [20]) of 1.32 % ID/g, a Drug uptake (Spleen [21]) of 0.8 % ID/g and a Drug uptake (Liver [22]) of 19.1 % ID/g. It also gave a Drug uptake (Liver [23]) of 12.4 % ID/g, a Drug uptake (Liver [24]) of 6.22 % ID/g and a Drug uptake (Liver [25]) of 4.87 % ID/g. The Drug uptake (Zone of skin [26]) was 0.46 % ID/g, the Drug uptake (Zone of skin [27]) was 1.18 % ID/g and the Drug uptake (Zone of skin [28]) was 1.16 % ID/g. It also gave a Drug uptake (Zone of skin [29]) of 0.4 % ID/g, a Drug uptake (Brain [30]) of 5.43 % ID/g and a Drug uptake (Brain [31]) of 3.56 % ID/g. It also gave a Drug uptake (Brain [32]) of 1.32 % ID/g, a Drug uptake (Brain [33]) of 0.46 % ID/g and a Drug uptake (Thyroid gland [34]) of 4.15 % ID/g. For the same molecule, the Drug uptake (Thyroid gland [35]) was 11.2 % ID/g, the Drug uptake (Thyroid gland [36]) was 59.1 % ID/g and the Drug uptake (Thyroid gland [37]) was 24.8 % ID/g. For the same molecule, the Ratio (Brain [38]) was 1.52, the logD [39] was 2.2 and the Drug uptake (Blood [40]) was 2.71 % ID/g. The Drug uptake (Blood [41]) was 2.24 % ID/g, the Drug uptake (Blood [42]) was 2.18 % ID/g and the Drug uptake (Blood [43]) was 1.01 % ID/g.
With `CNc1ccc(/C=C/c2cnc(OCCOCCOCCF)c([125I])c2)cc1` the Drug uptake (Heart [2]) was 9.85 % ID/g, the Drug uptake (Heart [3]) was 2.54 % ID/g and the Drug uptake (Heart [4]) was 1.75 % ID/g. For the same molecule, the Drug uptake (Kidney [5]) was 1.86 % ID/g, the Drug uptake (Spleen [6]) was 4.41 % ID/g and the Drug uptake (Spleen [7]) was 2.49 % ID/g. It also gave a Drug uptake (Heart [8]) of 1.22 % ID/g, a Drug uptake (Muscle tissue [9]) of 1.04 % ID/g and a Drug uptake (Muscle tissue [10]) of 1.11 % ID/g. For the same molecule, the Drug uptake (Muscle tissue [11]) was 0.85 % ID/g, the Drug uptake (Muscle tissue [12]) was 0.44 % ID/g and the Drug uptake (Lung [13]) was 6.85 % ID/g. For the same molecule, the Drug uptake (Lung [14]) was 3.01 % ID/g, the Drug uptake (Lung [15]) was 2.37 % ID/g and the Drug uptake (Lung [16]) was 1.85 % ID/g. The Drug uptake (Kidney [17]) was 9.03 % ID/g, the Drug uptake (Kidney [18]) was 3.4 % ID/g and the Drug uptake (Kidney [19]) was 2.81 % ID/g. It also gave a Drug uptake (Spleen [20]) of 1.75 % ID/g, a Drug uptake (Spleen [21]) of 1.27 % ID/g and a Drug uptake (Liver [22]) of 26.2 % ID/g. It also gave a Drug uptake (Liver [23]) of 11.5 % ID/g, a Drug uptake (Liver [24]) of 7.7 % ID/g and a Drug uptake (Liver [25]) of 6.25 % ID/g. It also gave a Drug uptake (Zone of skin [26]) of 1.48 % ID/g, a Drug uptake (Zone of skin [27]) of 2.95 % ID/g and a Drug uptake (Zone of skin [28]) of 2.46 % ID/g. It also gave a Drug uptake (Zone of skin [29]) of 1.32 % ID/g, a Drug uptake (Brain [30]) of 6.22 % ID/g and a Drug uptake (Brain [31]) of 1.23 % ID/g. The Drug uptake (Brain [32]) was 0.62 % ID/g, the Drug uptake (Brain [33]) was 0.26 % ID/g and the Drug uptake (Thyroid gland [34]) was 5.74 % ID/g. The Drug uptake (Thyroid gland [35]) was 24.1 % ID/g, the Drug uptake (Thyroid gland [36]) was 38.1 % ID/g and the Drug uptake (Thyroid gland [37]) was 215 % ID/g. The Ratio (Brain [38]) was 5.05, the logD [39] was 2.2 and the Drug uptake (Blood [40]) was 4.37 % ID/g. The Drug uptake (Blood [41]) was 3.83 % ID/g, the Drug uptake (Blood [42]) was 2.88 % ID/g and the Drug uptake (Blood [43]) was 2.21 % ID/g.
